Here are results for 15 molecules from US6900219B2, “ABCA-1 elevating compounds” (CV Therapeutics, Inc., priority 2002, dated 2005).

In the assay the test system is ABCA-1 gene. The assay can be described thus: compounds tested and found to elevate cellular expression of the ABCA-1 gene (Examples 1-6; test not named). The format is cell-based. On the procedure:
Activity testing is conducted as described in those patents and patent applications referenced above, and in the Examples below, and by methods apparent to one skilled in the art.
Turning to `CCn1c2ccccc2c2cc(CN(CCc3ccccc3)C(=O)c3ccc4c(c3)OCO4)ccc21` [2H-benzo[d]1,3-dioxolen-5-yl-N-[(9-ethylcarbazol-3-yl)methyl]-N-(2-phenylethyl)carboxamide], the “cellular expression of the ABCA-1 gene” value is given as “elevate cellular expression of the ABCA-1 gene”.

With `CCCn1c(C(CC)N(Cc2ccccc2)C(=O)CC(C)CC(C)(C)C)nc2ccccc2c1=O` (stereo not drawn) [3,5,5-trimethylhexanoic acid benzyl-[1-(4-oxo-3-propyl-3,4-dihydro-quinazolin-2-yl)propyl]-amide], the “cellular expression of the ABCA-1 gene” value is “elevate cellular expression of the ABCA-1 gene”.

Turning to `CCCN(C(=O)Nc1ccc(Br)cc1)C(C)c1nc2cc(Cl)ccc2c(=O)n1-c1ccc(C)cc1` (stereo not drawn) [3-(4-bromo-phenyl)-1-[1-(7-chloro-4-oxo-3-p-tolyl-3,4-dihydro-quinazolin-2-yl)-ethyl]-1-propyl-urea], the “cellular expression of the ABCA-1 gene” value is reported as “elevate cellular expression of the ABCA-1 gene”.

For `Clc1ccc(-c2cc(-c3ccccc3)[nH]n2)cc1` [3-(4-chlorophenyl)-5-phenylpyrazole], the “cellular expression of the ABCA-1 gene” value is reported as “elevate cellular expression of the ABCA-1 gene”.

With `Fc1cccc(CSc2ncc3ccccn23)c1` [3-[(3-fluorophenyl)methylthio]-4-hydroimidazolo[1,5-a]pyridine], the “cellular expression of the ABCA-1 gene” value was “elevate cellular expression of the ABCA-1 gene”.

On to `Cc1ccc(-c2ccc3c(N)c(C#N)sc3n2)cc1` [3-amino-6-(4-methylphenyl)thiopheno[2,3-b]pyridine-2-carbonitrile], for which the “cellular expression of the ABCA-1 gene” value is reported as “elevate cellular expression of the ABCA-1 gene”.

For `O=C(CCC1CCCC1)Nc1ccc2c(c1)CCC2` [3-cyclopentyl-N-indan-5-ylpropanamide], the “cellular expression of the ABCA-1 gene” value is “elevate cellular expression of the ABCA-1 gene”.

With `O=[N+]([O-])c1ccc(COc2ccc(C3SCCS3)cc2)cc1` [4-(1,3-dithiolan-2-yl)-1-[(4-nitrophenyl)methoxy]benzene], the “cellular expression of the ABCA-1 gene” value was “elevate cellular expression of the ABCA-1 gene”.

`Cc1ccc(-n2ncc(N(C)n3cccc3)c(Cl)c2=O)cc1` [4-chloro-2-(4-methylphenyl)-5-(methylpyrrolylamino)-2-hydropyridazin-3-one]: the “cellular expression of the ABCA-1 gene” value is reported as “elevate cellular expression of the ABCA-1 gene”.

Turning to `O=C(Nc1nccs1)c1ccc(C(F)(F)F)cc1` [4-trifluoromethylphenyl-N-(1,3-thiazol-2-yl)carboxamide], the “cellular expression of the ABCA-1 gene” value is “elevate cellular expression of the ABCA-1 gene”.

As for `CCOc1ccc(-n2c(C(C)N3CCN(C(=O)Nc4ccc(OC)cc4OC)CC3)nc3ccccc3c2=O)cc1` (stereo not drawn) [4-{1-[3-(4-ethoxyphenyl)-4-oxo-3,4-dihydro-quinazolin-2-yl]-ethyl}-piperazine-1-carboxylic acid (2,4-dimethoxy-phenyl)-amide], the “cellular expression of the ABCA-1 gene” value is listed as “elevate cellular expression of the ABCA-1 gene”.

On to `CCCOc1nc(-c2ccc(Cl)cc2Cl)n(S(=O)(=O)Cc2ccccc2)n1` [5-(2,4-dichlorophenyl)-1-[benzylsulfonyl]-3-propoxy-1,2,4-triazole], for which the “cellular expression of the ABCA-1 gene” value is recorded as “elevate cellular expression of the ABCA-1 gene”.

For `Cc1ccc(-c2ncc(-c3ccc(Cl)cc3)o2)cc1` [5-(4-chlorophenyl)-2-(4-methylphenyl)-1,3-oxazole], the “cellular expression of the ABCA-1 gene” value is “elevate cellular expression of the ABCA-1 gene”.

As to `CCc1c(C(=O)NCc2ccco2)cnn1-c1nc(-c2ccc(C)cc2)cs1` [5-ethyl-1-(4-p-tolyl-thiazol-2-yl)-1H-pyrazole-4-carboxylic acid (furan-2-ylmethyl)-amide], the “cellular expression of the ABCA-1 gene” value was “elevate cellular expression of the ABCA-1 gene”.

As for `CCc1c(C(=O)NCc2ccco2)cnn1-c1nc(-c2ccc(OC)cc2)cs1` [5-ethyl-1-[4-(4-methoxy-phenyl)-thiazol-2-yl]-1H-pyrazole-4-carboxylic acid (furan-2-ylmethyl)-amide], the “cellular expression of the ABCA-1 gene” value is on record as “elevate cellular expression of the ABCA-1 gene”.
